# Source: patent US11214803B2, “Modulators of YAP1 expression” (Ionis Pharmaceuticals, Inc., priority 2019, dated 2022)
# Strand notation (5' to 3'): a small letter for the sugar, then the base; units joined by * are phosphorothioate-linked, units joined directly phosphodiester-linked; [ ] holds rarer units or linkages, { } end groups; capitals alone tell only the bases. k = constrained ethyl (cEt); [5mC] = 5-methylcytosine; d = 2'-deoxy (DNA)
# System: Yap1 mRNA
# Assay: Antisense inhibition of human Yap1 in A-431 cells by cEt gapmers, single dose (Example 3, RTS36584)
# Assay type: cell-based
# Conditions: Table 8; A-431 cells, 5,000 cells per well, free uptake, 2,000 nM, approximately 48 hours; RTS36584; normalized to RIBOGREEN; Yap1 mRNA relative to untreated control cells
# How it was run: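 Values are % untreated control: Yap1 mRNA by quantitative RT-PCR (RTS36584), normalized to total RNA by RiboGreen. Before RNA isolation, 5,000 A-431 cells per well were exposed ~48 h to 2,000 nM 16-mer cEt gapmer, delivered without transfection reagent.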
row,Substance,YAP1 (% UTC)
1,958381 (antisense kT*k[5mC]*k[5mC]*dT*d[5mC]*dT*dG*d[5mC]*dG*d[5mC]*dG*d[5mC]*d[5mC]*k[5mC]*kG*k[5mC]) [Compound 958381],146 % UTC
2,958393 (antisense kG*k[5mC]*k[5mC]*dT*dA*dT*dG*dA*dG*dT*d[5mC]*dA*dA*k[5mC]*k[5mC]*kT) [Compound 958393],89 % UTC
3,958354 (antisense kG*kT*k[5mC]*dG*dG*dT*d[5mC]*dT*d[5mC]*d[5mC]*dG*dA*dG*kT*k[5mC]*k[5mC]) [Compound 958354],31 % UTC
4,958368 (antisense kA*kT*k[5mC]*dT*dA*dG*d[5mC]*dT*dT*dG*dG*dT*dG*kG*k[5mC]*kA) [Compound 958368],11 % UTC
5,958394 (antisense kT*kT*kG*dA*dA*dA*d[5mC]*d[5mC]*dT*dG*dA*dT*d[5mC]*k[5mC]*kT*kT) [Compound 958394],54 % UTC
6,958412 (antisense kA*k[5mC]*k[5mC]*dT*dT*dT*dA*d[5mC]*d[5mC]*dA*dA*dA*dA*k[5mC]*kG*kA) [Compound 958412],49 % UTC

# Same assay, conditions: Table 9; A-431 cells, 5,000 cells per well, free uptake, 2,000 nM, approximately 48 hours; RTS36584; normalized to RIBOGREEN; Yap1 mRNA relative to untreated control cells
row,Substance,YAP1 (% UTC)
1,958511 (k[5mC]*kA*k[5mC]*dT*dA*d[5mC]*d[5mC]*dA*d[5mC]*dA*d[5mC]*dT*dA*kT*kT*kA; antisense) [Compound 958511],31 % UTC
2,958696 (antisense kG*k[5mC]*kA*dT*dA*d[5mC]*dT*dA*d[5mC]*dA*d[5mC]*dT*dA*kT*kA*kA) [Compound 958696],56 % UTC
3,958466 (antisense kG*kT*k[5mC]*dA*dT*dT*dA*dA*dG*dG*dA*dT*dG*kT*k[5mC]*kA) [Compound 958466],9 % UTC
4,958661 (kT*kG*k[5mC]*d[5mC]*dG*dT*dT*dG*dG*d[5mC]*d[5mC]*d[5mC]*d[5mC]*kT*k[5mC]*k[5mC]; antisense) [Compound 958661],120 % UTC
5,958736 (antisense kG*kT*kG*dA*dT*dA*dT*dG*dG*dA*dT*dT*d[5mC]*kT*kG*kT) [Compound 958736],3 % UTC

# Same assay, conditions: Table 10; A-431 cells, 5,000 cells per well, free uptake, 2,000 nM oligonucleotide, approx. 48 hours; primer probe set RTS36584; Yap1 mRNA normalized to RIBOGREEN, percent of untreated control
row,Substance,YAP1 (% UTC)
1,958712 (antisense kT*kT*kA*dT*dA*dT*dA*dG*dG*dT*dT*dA*d[5mC]*kA*kG*kA) [Compound 958712],52 % UTC
2,958817 (kT*kG*k[5mC]*d[5mC]*dA*dG*dG*dT*dA*dA*dG*d[5mC]*d[5mC]*kA*k[5mC]*kA; antisense) [Compound 958817],30 % UTC
3,958642 (antisense kG*kA*k[5mC]*dA*dT*d[5mC]*dA*dA*dT*dT*dT*d[5mC]*dA*kG*kT*k[5mC]) [Compound 958642],91 % UTC
4,958567 (kT*k[5mC]*kA*dA*d[5mC]*d[5mC]*dT*dA*dT*dG*dA*dA*d[5mC]*kT*kA*kT; antisense) [Compound 958567],3 % UTC

# Same assay, conditions: Table 11; A-431 cells, 5,000 cells per well, free uptake, 2,000 nM oligonucleotide, approx. 48 hours; primer probe set RTS36584; Yap1 mRNA normalized to RIBOGREEN, percent of untreated control
row,Substance,YAP1 (% UTC)
1,958748 (antisense kA*k[5mC]*kA*dT*dG*dT*dG*dA*d[5mC]*dA*dT*dT*d[5mC]*k[5mC]*kG*kG) [Compound 958748],83 % UTC
2,958488 (kA*kG*kG*dA*dA*dT*dG*dG*d[5mC]*dA*dT*d[5mC]*d[5mC]*kA*kT*k[5mC]; antisense) [Compound 958488],41 % UTC
3,958803 (antisense kG*kA*kT*dA*dA*dT*d[5mC]*dA*dT*d[5mC]*d[5mC]*dT*d[5mC]*kA*kG*k[5mC]) [Compound 958803],24 % UTC
4,958548 (kG*kA*k[5mC]*dA*d[5mC]*dA*dT*dA*d[5mC]*dT*d[5mC]*dT*dA*kG*kT*kT; antisense) [Compound 958548],21 % UTC

# Same assay, conditions: Table 12; A-431 cells, 5,000 cells per well, free uptake, 2,000 nM modified oligonucleotide, approx. 48 hours; RTS36584; normalized to RIBOGREEN; Yap1 mRNA relative to untreated control cells
row,Substance,YAP1 (% UTC)
1,958559 (kA*kA*kT*dT*d[5mC]*dA*d[5mC]*dA*dA*d[5mC]*d[5mC]*dA*dA*k[5mC]*kT*kA; antisense) [Compound 958559],17 % UTC
2,958654 (kA*kA*kT*dG*dG*dA*dG*dT*dG*dG*d[5mC]*d[5mC]*dG*kG*kG*k[5mC]; antisense) [Compound 958654],110 % UTC
3,958794 (antisense kT*kT*k[5mC]*d[5mC]*dG*d[5mC]*dA*dT*dT*dG*d[5mC]*d[5mC]*dT*kA*kA*kG) [Compound 958794],14 % UTC
4,958704 (antisense k[5mC]*k[5mC]*k[5mC]*dT*dA*d[5mC]*dA*d[5mC]*dT*d[5mC]*dG*dA*dG*kG*kA*kT) [Compound 958704],122 % UTC
5,958739 (antisense kA*kG*k[5mC]*dA*dA*dT*dA*dG*dA*dG*dT*dA*dA*k[5mC]*k[5mC]*kA) [Compound 958739],4 % UTC

# Same assay, conditions: Table 13; A-431 cells, 5,000 cells per well, free uptake, 2,000 nM modified oligonucleotide, approx. 48 hours; RTS36584; normalized to RIBOGREEN; Yap1 mRNA relative to untreated control cells
row,Substance,YAP1 (% UTC)
1,958575 (kG*kG*k[5mC]*dT*dA*d[5mC]*dT*dG*dG*d[5mC]*dA*dA*dA*kT*kT*kA; antisense) [Compound 958575],9 % UTC
2,958520 (k[5mC]*kT*kA*d[5mC]*d[5mC]*dG*dT*dA*dT*dG*d[5mC]*d[5mC]*d[5mC]*kA*kG*kA; antisense) [Compound 958520],27 % UTC
3,958735 (antisense kA*kG*k[5mC]*dA*dA*dT*d[5mC]*dT*dT*dG*dT*dG*dG*kA*kT*k[5mC]) [Compound 958735],7 % UTC
4,958755 (antisense kT*kA*kA*d[5mC]*dA*dT*dA*dA*dG*dA*d[5mC]*dA*d[5mC]*kG*kG*kA) [Compound 958755],12 % UTC

# Same assay, conditions: Table 26; Yap1 mRNA by 3-10-3 cEt gapmers targeting SEQ ID NO.: 1, and 2; percent of untreated control
row,Substance,YAP1 (% UTC)
1,1075244 (kA*k[5mC]*k[5mC]*d[5mC]*dA*dA*dA*dA*dA*dT*dT*d[5mC]*dT*kG*kT*kG; antisense) [compound 1075244],76 % UTC
2,1075020 (antisense kT*kT*kA*dA*dT*dT*dA*dG*d[5mC]*dA*dT*dT*dA*kG*kA*kG) [compound 1075020],30 % UTC

# Same assay, conditions: Table 27; Yap1 mRNA by 3-10-3 cEt gapmers targeting SEQ ID NO.: 1, and 2; percent of untreated control
row,Substance,YAP1 (% UTC)
1,1075437 (antisense kT*kA*kT*dT*dA*dG*dT*dA*d[5mC]*dG*dA*dG*d[5mC]*kT*kA*k[5mC]) [compound 1075437],85 % UTC
2,1075149 (kG*k[5mC]*kG*dG*dA*dA*dA*dA*dA*dA*d[5mC]*dA*d[5mC]*k[5mC]*kT*kA; antisense) [compound 1075149],50 % UTC
3,1074317 (antisense kG*kA*kG*dA*dA*dT*dT*dT*dG*d[5mC]*dT*dG*dT*kG*k[5mC]*kT) [compound 1074317],12 % UTC

# Same assay, conditions: Table 28; Yap1 mRNA as percent of untreated control; 3-10-3 cEt gapmers targeting SEQ ID NO.: 1, and 2
row,Substance,YAP1 (% UTC)
1,1076046 (k[5mC]*kT*kT*dA*dA*dA*dT*dG*dG*dT*dG*d[5mC]*dA*kA*kT*kA; antisense) [compound 1076046],28 % UTC
2,1075310 (antisense kG*kT*kA*dA*dT*dT*dA*dA*dA*d[5mC]*dG*dA*dA*kA*k[5mC]*kA) [compound 1075310],84 % UTC

# Same assay, conditions: Table 29; Yap1 mRNA as percent of untreated control; 3-10-3 cEt gapmers targeting SEQ ID NO.: 1, and 2
row,Substance,YAP1 (% UTC)
1,1075727 (kT*kT*kA*dT*d[5mC]*dG*dG*dA*dG*dG*d[5mC]*dT*dT*k[5mC]*kG*k[5mC]; antisense) [compound 1075727],31 % UTC
2,1075311 (antisense kA*kG*kT*dA*dA*dT*dT*dA*dA*dA*d[5mC]*dG*dA*kA*kA*k[5mC]) [compound 1075311],100 % UTC

# Same assay, conditions: Table 34; Yap1 mRNA as percent of untreated control; 3-10-3 cEt gapmers targeting SEQ ID NO: 1 and 2; single dose
row,Substance,YAP1 (% UTC)
1,1075732 (kA*kA*kT*dA*dA*d[5mC]*d[5mC]*dT*d[5mC]*dG*dA*dG*dT*kG*k[5mC]*kT; antisense) [compound 1075732],36 % UTC
2,1075060 (antisense kG*kT*kT*dT*dA*dA*d[5mC]*dA*dA*dT*d[5mC]*dT*d[5mC]*k[5mC]*k[5mC]*k[5mC]) [compound 1075060],70 % UTC
3,1075764 (k[5mC]*kT*kT*d[5mC]*dA*dA*dG*dG*dA*dA*dG*dG*dT*kG*k[5mC]*kT; antisense) [compound 1075764],103 % UTC
4,1075924 (antisense kA*kT*kT*dT*dA*dA*dT*dA*d[5mC]*dT*d[5mC]*dT*d[5mC]*kT*kG*kG) [compound 1075924],21 % UTC

# Same assay, conditions: Table 35; Yap1 mRNA as percent of untreated control; 3-10-3 cEt gapmers targeting SEQ ID NO: 1 and 2; single dose
row,Substance,YAP1 (% UTC)
1,1075029 (antisense kA*kT*kA*dT*dT*d[5mC]*dG*dA*d[5mC]*dA*d[5mC]*dT*dG*kG*kA*kG) [compound 1075029],33 % UTC
2,1075637 (antisense k[5mC]*k[5mC]*kA*d[5mC]*dA*dA*d[5mC]*d[5mC]*dT*dG*dT*d[5mC]*dA*kA*kT*kA) [compound 1075637],100 % UTC
3,1075477 (k[5mC]*kT*kT*dT*dA*dT*d[5mC]*dT*d[5mC]*dA*d[5mC]*dT*dA*kG*k[5mC]*kT; antisense) [compound 1075477],86 % UTC
4,1075541 (kG*k[5mC]*kT*d[5mC]*dA*dA*dA*dA*d[5mC]*dT*dG*dA*d[5mC]*kA*kT*kA; antisense) [compound 1075541],47 % UTC
5,1076405 (antisense kT*kT*kA*dT*dT*dT*dA*dA*dG*dA*d[5mC]*d[5mC]*dT*kG*kG*kT) [compound 1076405],12 % UTC
